The values that follow are results of earlier work, collected in US20050142123A1, “Water-dispersible coenzyme q10 dry powders” (priority 2002, published 2005).

For data set [1] the following is noted: administered orally.

On to `COC1=C(OC)C(=O)C(CC=C(C)CCC=C(C)CCC=C(C)CCC=C(C)CCC=C(C)CCC=C(C)CCC=C(C)CCC=C(C)CCC=C(C)CCC=C(C)C)=C(C)C1=O` [Coenzyme Q-10, 6-Decaprenyl-2,3-dimethoxy-5-methyl-1,4-benzoquinone], for which the solubility in water entry was “practically insoluble in water”. For the same compound, the bioavailability result in data set [1] is “poor”.
